Results from ChEMBL document CHEMBL1201862, “PubChem BioAssay data set” (2004).
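Grown in 96-well plates, cells were treated for 48 hours with each compound at five concentrations. Insufficient inhibition: endpoint recorded as highest concentration tested. The concentration for 50% growth inhibition is given as GI50.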 Calls of active or inactive are those of the source. Cut-off read from the data, not from the text of the source: active = GI50 up to about 1.1 µM and inactive = higher.

Key:
Experiment in all cases: NCI anticancer screen, dose series, 48 h
M19-MEL = system: M19-MEL
XF498 = system: XF498
SNB-78 = system: SNB-78
LXFL 529 = system: LXFL 529
DMS-273 = system: DMS-273
DMS-114 = system: DMS-114
RXF 631 = system: RXF 631
KM-20L2 = system: KM-20L2
HOP-18 = system: HOP-18

Structure (SMILES)	GI50 (M19-MEL)	GI50 (XF498)	GI50 (SNB-78)	GI50 (LXFL 529)	GI50 (DMS-273)	GI50 (DMS-114)	GI50 (RXF 631)	GI50 (KM-20L2)	GI50 (HOP-18)
CCCCCCCCCCCCCCCCCC(=O)NCC(COP(=O)(O)O)OCC (stereo not given)	> 100 µM (inactive)	51.8 µM (inactive)	22.5 µM (inactive)	> 100 µM (inactive)	77.1 µM (inactive)	33.6 µM (inactive)	25.8 µM (inactive)		
Cc1ccc(C(=O)O/N=C2/CCC/C2=C\c2ccccc2)cc1	> 100 µM (inactive)		> 100 µM (inactive)	> 100 µM (inactive)	> 100 µM (inactive)	> 100 µM (inactive)		> 100 µM (inactive)	> 100 µM (inactive)
Cn1c(CBr)nc2c1C(=O)c1nc(CBr)[nH]c(=O)c1C2=O	26.8 µM (inactive)			53.7 µM (inactive)		> 100 µM (inactive)	> 100 µM (inactive)	46.1 µM (inactive)	> 100 µM (inactive)
CC(c1ccc(Br)cc1)C(C(=O)O)C(=O)O (stereo not given)	> 100 µM (inactive)		> 100 µM (inactive)	> 100 µM (inactive)	> 100 µM (inactive)	> 100 µM (inactive)		> 100 µM (inactive)	> 100 µM (inactive)
CN1/C(=C/C(=O)c2ccc(Cl)cc2)Nc2ccccc21	38.2 µM (inactive)	60.3 µM (inactive)	> 100 µM (inactive)	33.2 µM (inactive)			43.3 µM (inactive)	29.2 µM (inactive)	
CN1c2c(O)nc(N)nc2NCC1CCNc1ccc(C(=O)NC(CCC(=O)O)C(=O)O)cc1 (stereo not given)	222 µM (inactive)	394 µM (inactive)	1130 µM (inactive)		15.1 µM (inactive)	294 µM (inactive)		573 µM (inactive)	1550 µM (inactive)
CCCCCCCC(=O)OC(CBr)COC(=O)C(C)(C)C (stereo not given)	> 84.1 µM (inactive)	> 100 µM (inactive)	> 100 µM (inactive)	> 100 µM (inactive)	> 84.5 µM (inactive)	> 77.1 µM (inactive)	> 100 µM (inactive)	> 100 µM (inactive)	> 100 µM (inactive)
CC(C)(C)OP(=O)(OC(C)(C)C)C(O)c1ccc(/C=C(\C#N)C(N)=O)cc1 (stereo not given)	> 100 µM (inactive)	> 100 µM (inactive)	> 100 µM (inactive)	> 100 µM (inactive)	> 100 µM (inactive)	> 100 µM (inactive)		> 100 µM (inactive)	
OCC[N+]12CCCN1CCC2	> 100 µM (inactive)		> 100 µM (inactive)	> 100 µM (inactive)	> 100 µM (inactive)	> 100 µM (inactive)		> 100 µM (inactive)	> 100 µM (inactive)
O=[N+]([O-])C1(CO)COC2(OC1)c1ccccc1-c1ccccc12	> 100 µM (inactive)		> 100 µM (inactive)	> 100 µM (inactive)	> 100 µM (inactive)	> 100 µM (inactive)	> 100 µM (inactive)	> 100 µM (inactive)	> 100 µM (inactive)
O=[N+]([O-])c1cccc2nc3ccccc3c(NCCN(CCO)CCO)c12		0.00512 µM (active)	0.0221 µM (active)	0.0187 µM (active)	0.012 µM (active)		0.00457 µM (active)	0.00509 µM (active)	0.0443 µM (active)
N#C/C(=C1\SC(/N=N/c2ccc(Cl)cc2)C(=O)N1c1ccccc1)c1nc2ccccc2[nH]1 (stereo not given)	28.1 µM (inactive)	31.3 µM (inactive)	42.1 µM (inactive)	24.6 µM (inactive)	36.8 µM (inactive)			> 100 µM (inactive)	
COc1ccc(/C=C2\CCC(CN(C)C)C2=O)cc1OC (stereo not given)	7 µM (inactive)	13.5 µM (inactive)	17.5 µM (inactive)	2.43 µM (inactive)	14.4 µM (inactive)	12.5 µM (inactive)	6.84 µM (inactive)	12.8 µM (inactive)	20.8 µM (inactive)
O=S(=O)(O)c1ccc(/N=N/c2nc(C(F)(F)F)c(C(F)(F)F)[nH]2)cc1	39.2 µM (inactive)	17.2 µM (inactive)	96.2 µM (inactive)	87.3 µM (inactive)	> 100 µM (inactive)	16.8 µM (inactive)	30.8 µM (inactive)	76.7 µM (inactive)	25.5 µM (inactive)
COc1ccc(/C(=N/NC(=O)NN)C(c2ccc(OC)cc2)C2(O)CNc3c(Cl)cc(Cl)cc32)cc1 (stereo not given)	> 100 µM (inactive)		> 100 µM (inactive)	65.6 µM (inactive)		71.8 µM (inactive)	48.3 µM (inactive)	> 100 µM (inactive)	53.2 µM (inactive)
O=C1C=C(Br)C(=O)C(Br)=C1	> 53.5 µM (inactive)	> 100 µM (inactive)	> 100 µM (inactive)	54.5 µM (inactive)	> 100 µM (inactive)	> 72.4 µM (inactive)	> 100 µM (inactive)	> 100 µM (inactive)	> 100 µM (inactive)
COc1ccc(N2C(=O)C3c4[nH]c5ccccc5c4C4CCCCCCCCCCC4C3C2=O)cc1 (stereo not given)	25.1 µM (inactive)	12.9 µM (inactive)		6.93 µM (inactive)	6.31 µM (inactive)	18 µM (inactive)		3.15 µM (inactive)	3.03 µM (inactive)
CCOC(=O)c1[nH]c(COC(C)=O)c2c1CCCCCCCCCC2	> 100 µM (inactive)	> 100 µM (inactive)	> 100 µM (inactive)	> 100 µM (inactive)	> 100 µM (inactive)	> 100 µM (inactive)		> 100 µM (inactive)	> 100 µM (inactive)
COc1cc2c(cc1C1=NC(C)(C)CO1)OCO2	> 100 µM (inactive)	> 100 µM (inactive)		> 100 µM (inactive)		> 100 µM (inactive)	> 100 µM (inactive)	> 100 µM (inactive)	> 100 µM (inactive)
CN(C)c1ccc(/C=c2\sc3nnc(-c4cccnc4)n3c2=O)cc1	> 100 µM (inactive)	> 100 µM (inactive)	> 100 µM (inactive)	> 100 µM (inactive)	> 100 µM (inactive)	> 100 µM (inactive)		> 100 µM (inactive)	> 100 µM (inactive)
CC(C)C(Sc1nc(-c2ccccc2)c(-c2ccccc2)[nH]1)c1n[nH]c(=S)n1-c1ccccc1 (stereo not given)	17.5 µM (inactive)	37.7 µM (inactive)	46 µM (inactive)	18.5 µM (inactive)	23.6 µM (inactive)			29.1 µM (inactive)	
CSc1nc(NC2OCC(OC(C)=O)C(OC(C)=O)C2OC(C)=O)c(/N=C\C=N\c2c(NC3OCC(OC(C)=O)C(OC(C)=O)C3OC(C)=O)nc(SC)n(C)c2=O)c(=O)n1C (stereo not given)	> 100 µM (inactive)			> 100 µM (inactive)	> 100 µM (inactive)	> 100 µM (inactive)		> 100 µM (inactive)	> 100 µM (inactive)
C=CC[P@@]1(=O)O[C@H](c2ccccc2)C(C)N1C(C)C (stereo not given in full)	> 100 µM (inactive)	> 100 µM (inactive)	> 100 µM (inactive)	> 100 µM (inactive)	> 100 µM (inactive)	> 100 µM (inactive)	> 100 µM (inactive)		> 100 µM (inactive)
COc1cc(/C=C/c2ccc(OC(C)=O)cc2)cc(OC)c1OC	39.9 µM (inactive)		35.1 µM (inactive)	29.3 µM (inactive)	26.9 µM (inactive)	22.9 µM (inactive)	11.6 µM (inactive)	33.7 µM (inactive)	55.3 µM (inactive)
COc1cc(/C=C\c2ccccc2)cc(OC)c1OC	5.31 µM (inactive)	3.9 µM (inactive)	7.83 µM (inactive)	6.56 µM (inactive)	1.24 µM (inactive)	3.06 µM (inactive)	8.87 µM (inactive)	1.64 µM (inactive)	> 36.8 µM (inactive)
